Test results published in US12465585B2, “Compositions for the management of seizure induced neurotoxicity” (SAMI-SABINSA GROUP LIMITED, priority 2018, dated 2025).

Assays:
Format in all cases: in vivo
cortex of the brain = assay: Anti-oxidant parameters in brain cortex, kainic acid induced seizure rat model; conditions: KA seizure rat model, KA vs control
Method: (§1) Two-month-old male Sprague-Dawley rats were purchased from commercial vendor and housed at 25°±2° C., with the humidity maintained at 55%, wood chip bedding, on a 12:12 hour dark/light cycle, with free access to food and water. All animal procedures were carried out in accordance with NIH and Auburn University Animal Care and Use Committee guidelines. The rats were divided into four groups (1. Control, 2. Kainic acid (10 mg/kg), 3. LD (Low Dose)-composition containing OBC 250 mg/kg+Kainic acid, and 4. High Dose (HD)-composition containing OBC 500 mg/kg+Kainic acid). Composition containing OBC was mixed with powdered feed and administered orally for 2 weeks prior to kainic-acid administration. […] Neuroscience. 1982; 7(10):2525-36; Jinde et al., Lack of kainic acid-induced gamma oscillations predicts subsequent CA1 excitotoxic cell death. Eur J Neurosci. 2009; 30(6):1036-55; Medvedev et al., Kainic acid induces distinct types of epileptiform discharge with differential involvement of hippocampus and neocortex. Brain Res Bull. 2000; 52(2):89-98). Typically, Racine scores include the following stages:
For the complete management of epilepsy, it is imperative to reduce the incidence of seizures and also to effectively manage and correct the damage to the neurons which is induced by recurrent seizure activity. Drugs which reduced the incidence of seizures may not effectively manage and correct the clinical conditions resulting from seizures. Failure to correct and manage such effects results in neurodegeneration. The ability of a composition comprising oroxylin A, baicalein and chrysin (OBC) [250 mg/kg—low dose (LD) and 500 mg/kg—high dose (HD)] to management of neurotoxicity associated by epilepsy was tested in kainic acid induced seizure rat model. The biochemical parameters like ROS, hydrogen peroxide, protein carbonyl levels, nitrite levels, glutathione content, mitochondrial activity, and caspase activity were estimated in the cortex of the rat models.

caspase 1 = assay: Caspase 1 activity in brain cortex, kainic acid induced seizure rat model; conditions: KA seizure rat model, KA vs control, OBC 250 and 500 mg/kg
Method: as §1
(§2) For the complete management of epilepsy, it is imperative to reduce the incidence of seizures and also to effectively manage and correct the damage to the neurons which is induced by recurrent seizure activity. […]

caspase 3 = assay: Caspase 3 activity in brain cortex, kainic acid induced seizure rat model; conditions: KA seizure rat model, KA vs control, OBC 250 and 500 mg/kg
Method: as §1, §2

[1] = OBC 250 and 500 mg/kg oral 2 weeks

SMILES: C=C(C)[C@H]1CN[C@H](C(=O)O)[C@H]1CC(=O)O [Kainic acid]
- Glutathione levels (FIG. 7) (cortex of the brain; OBC 250 and 500 mg/kg): decreased
- Hydrogen peroxide levels (FIG. 4) (cortex of the brain; [1]): significantly increased
- Lipid peroxidation (FIG. 5) (cortex of the brain; [1]): significantly increased
- Nitrite content (FIG. 3) (cortex of the brain; [1]): significantly increased
- Protein carbonyl content (FIG. 6) (cortex of the brain; [1]): significantly increased
- ROS generation (FIG. 2) (cortex of the brain; [1]): significantly increased
- Activity of caspase 1 (FIG. 9) (caspase 1): significantly increased
- Activity of caspase 3 (FIG. 10) (caspase 3): significantly increased
